Experimental findings from the OligoGym collection are described below.

Where “and” joins values, the source holds several entries; their conditions need not be identical. Equal entries are not always repeated. After the bases stand the sugars from the 5' end (letter, count) and the backbone: PS all phosphorothioate, else s phosphorothioate and o phosphodiester by linkage. Methylation of C is not given here. e = 2'-O-(2-methoxyethyl) (MOE); k = constrained ethyl (cEt); d = 2'-deoxy (DNA)

The first series concerns the target IRF4. The conditions noted are these: ASO, MM.1R, 0.0625 µM.
Turning to GGAACTCATAGGTGTA (sugars k3 d10 k3, PS), the target mRNA inhibition was 11% and 32%.
In the case of GGCAAATTAATGCTTC (sugars k3 d10 k3, PS), the target mRNA inhibition is -5% and 17%.

Still in this series, the particulars now being: ASO, MM.1R, 0.074 µM.
Regarding GGCAAATTAATGCTTC (sugars k3 d10 k3, PS), the target mRNA inhibition was -9%.

The series is the same for the next values; noted with them: ASO, MM.1R, 0.222 µM.
Regarding GGCAAATTAATGCTTC (sugars k3 d10 k3, PS), the target mRNA inhibition was -33%.

The same series, now with this note: ASO, MM.1R, 0.25 µM.
Turning to GGAACTCATAGGTGTA (sugars k3 d10 k3, PS), the target mRNA inhibition was 26% and 42%.
Consider GGCAAATTAATGCTTC (sugars k3 d10 k3, PS), for which the target mRNA inhibition was -11% and 5%.

Staying with this series, now noted: ASO, MM.1R, 0.666 µM.
On to GGCAAATTAATGCTTC (sugars k3 d10 k3, PS), for which the target mRNA inhibition stood at 7%.

Staying with this series, now noted: ASO, MM.1R, 1 µM.
Consider GGAACTCATAGGTGTA (sugars k3 d10 k3, PS), for which the target mRNA inhibition is 53% and 65%.
For “GGAAGTTTACACTGGA (sugars k2 d9 e3 k2, PS)”, the target mRNA inhibition turned out to be 47%.
Take “GGAAGTTTACACTGGA (sugars kdddddddddkekeke, PS)”: the target mRNA inhibition turned out to be 32%.
Take “GGAAGTTTACACTGGA (sugars kkddddddddddkeke, PS)”: the target mRNA inhibition worked out at 46%.
In the case of GGAGAGGGCGACGACA (sugars k3 d10 k3, PS), the target mRNA inhibition was -1%.
Same read-out and setting: the result for GGATAACCTGAACATG (sugars k3 d10 k3, PS) reads 9%; that for GGATTCCGCGCGCAGA (sugars k3 d10 k3, PS), 21%.
As for “GGCACATCAATGTTTT (sugars k2 d9 e3 k2, PS)”, the target mRNA inhibition is 22% and 36%.
Still for that read-out and setting: the result for “GGCACATCAATGTTTT (sugars kddddddddddkekek, PS)” reads 28% and 25%; that for “GGCACATCAATGTTTT (sugars kkddddddddddkeke, PS)”, 9%; that for GGCCACCGCACGCAAG (sugars k3 d10 k3, PS), -24%.
On the same count and under the same terms, the result for GGCCTGAGTTACCGCA (sugars k3 d10 k3, PS) reads 8%; that for GGCGACTGCTGAAAAC (sugars k3 d10 k3, PS), -10%; that for GGCGCGGACGCACGGA (sugars k3 d10 k3, PS), 10%.
The same measure, in the same setting: the result for GGCTCCGCTCAACCAG (sugars k3 d10 k3, PS) reads 9%; that for “GGGATTATATACTGGT (sugars kkdddddddddkekek, PS)”, 40%.
GGGTTAAAGGAGTGCA (sugars k3 d10 k3, PS): the target mRNA inhibition was found to be 0%.
On to GGTATTTATAACCGGT (sugars k3 d10 k3, PS), for which the target mRNA inhibition amounted to 10%.
For the sequence GGTATTTTTCCGTTCC (sugars k3 d10 k3, PS), the target mRNA inhibition worked out at 30%.
Same read-out and setting: the result for “GGTTGGCTGGTCTTTG (sugars kddddddddddkekek, PS)” reads 47%.
The same measure, in the same setting: as for “GGTTGGCTGGTCTTTG (sugars kdddddddddkekeke, PS)”, the figure is 26%.
As to “GGTTGGCTGGTCTTTG (sugars kkdddddddddkdkdk, PS)”, the target mRNA inhibition came out at 64%.
Same read-out and setting: as for GTAAACGCAAGTCTGA (sugars k3 d10 k3, PS), the figure is 14%; as for GTAGGTAAGATCTCCA (sugars k3 d10 k3, PS), 22%; as for “GTAGTATGAGAAACGG (sugars kddddddddddkekek, PS)”, 46%.
On to “GTAGTATGAGAAACGG (sugars kdddddddddkekeke, PS)”, for which the target mRNA inhibition came out at 28%.

Staying with this series, now noted: ASO, MM.1R, 2 µM.
GGCAAATTAATGCTTC (sugars k3 d10 k3, PS): the target mRNA inhibition is -5%.

The same series, now with this note: ASO, MM.1R, 4 µM.
Turning to GGAACTCATAGGTGTA (sugars k3 d10 k3, PS), the target mRNA inhibition is 75% and 80%.

The same series, now with this note: ASO, SK-MEL-28, 4 µM.
In the case of GCTTCTTCAATTTACA (sugars k3 d10 k3, PS), the target mRNA inhibition is 45%.
Turning to GCTTTTTCAAACACTA (sugars k3 d10 k3, PS), the target mRNA inhibition was determined as 68%.
For the sequence GGAAACGAGAACGCAC (sugars k3 d10 k3, PS), the target mRNA inhibition is 30%.
The same measure, in the same setting: the result for GGAATCTTGGCAGGGA (sugars k3 d10 k3, PS) reads 48%; that for GGACATATTTGCTTTG (sugars k3 d10 k3, PS), 32%; that for GGAGAGGCTGAGATAA (sugars k3 d10 k3, PS), 29%.
Still for that read-out and setting: the result for GGAGATATTAATTACT (sugars k3 d10 k3, PS) reads 50%.
The same measure, in the same setting: the result for GGAGATCCTTTTTATT (sugars k3 d10 k3, PS) reads 32%; that for GGAGGAGGGTTGGCCT (sugars k3 d10 k3, PS), 1%.
Take GGAGTAATAGTAAATA (sugars k3 d10 k3, PS): the target mRNA inhibition amounted to 36%.
Same read-out and setting: the result for GGATGGAACAGTAACT (sugars k3 d10 k3, PS) reads 52%; that for GGATTCTATAAATAGA (sugars k3 d10 k3, PS), 25%.
On the same count and under the same terms, the result for GGCAAATTAATGCTTC (sugars k3 d10 k3, PS) reads 76%.
Same read-out and setting: the result for GGCAACCTGCATTTGC (sugars k4 d8 k4, PS) reads -12%.
In the case of GGCAAGATGAGAATTC (sugars k3 d10 k3, PS), the target mRNA inhibition was determined as 25%.
Same read-out and setting: as for GGCAAGTTTTCTCTGT (sugars k3 d10 k3, PS), the figure is 36%; as for GGCACGGCTTCAGTCA (sugars k3 d10 k3, PS), 75%; as for GGCCAACGACTCCACA (sugars k3 d10 k3, PS), 23%.
For the sequence GGCCAATGATTTTGTT (sugars k3 d10 k3, PS), the target mRNA inhibition was found to be 6%.
The same measure, in the same setting: as for GGCCATCCAGAGGACC (sugars k3 d10 k3, PS), the figure is 25%; as for GGCCCCAGCCAAGAAG (sugars k3 d10 k3, PS), 8%; as for GGCCGATCATCAACTT (sugars k3 d10 k3, PS), 7%.
For GGCCTTCCTGGCGGAG (sugars k3 d10 k3, PS), the target mRNA inhibition worked out at 22%.
On the same count and under the same terms, as for GGCGACCCCGTCGCAG (sugars k3 d10 k3, PS), the figure is 30%; as for GGCGACTAACTCTCCT (sugars k3 d10 k3, PS), 63%.
On to GGCTAGGCCACCGCAC (sugars k3 d10 k3, PS), for which the target mRNA inhibition was 28%.
As to GGCTGAGATAGGAAGC (sugars k3 d10 k3, PS), the target mRNA inhibition amounted to 36%.
The same measure, in the same setting: the result for GGGAACAGATAGTTAA (sugars k3 d10 k3, PS) reads 26%; that for GGGAAGTGGACCCCAT (sugars k3 d10 k3, PS), 9%; that for GGGACCCACGGACGGA (sugars k3 d10 k3, PS), 9%.
On the same count and under the same terms, as for GGGAGATCCGGCAGCC (sugars k3 d10 k3, PS), the figure is -10%.
Take GGGCAACAGTTCAAGT (sugars k3 d10 k3, PS): the target mRNA inhibition is 36%.
Still for that read-out and setting: as for GGGCAAGATGAGAATT (sugars k3 d10 k3, PS), the figure is 0%.
In the case of GGGCAATGGAGTCTCG (sugars k3 d10 k3, PS), the target mRNA inhibition was 24%.
Still for that read-out and setting: the result for GGGCAGTCAATTGGAC (sugars k3 d10 k3, PS) reads 25%.
Take GGGCATCCTCAGTTAC (sugars k3 d10 k3, PS): the target mRNA inhibition amounted to 33%.
Consider GGGCATGTAAAACATA (sugars k3 d10 k3, PS), for which the target mRNA inhibition was 23%.
Regarding GGGCCCGTCCCAGTAG (sugars k3 d10 k3, PS), the target mRNA inhibition was found to be 20%.
Regarding GGGCGACGACAGCTGC (sugars k3 d10 k3, PS), the target mRNA inhibition was determined as 32%.
In the case of GGGTAAAGGAGTGCAG (sugars k3 d10 k3, PS), the target mRNA inhibition came to 19%.
With GGGTCCTACCTGCTGG (sugars k3 d10 k3, PS), the target mRNA inhibition was 36%.
On the same count and under the same terms, the result for GGGTTAAAGATGTTAC (sugars k3 d10 k3, PS) reads 50%; that for GGGTTACGCTTATTTT (sugars k3 d10 k3, PS), 65%; that for GGTAATTTAGGCCAAT (sugars k3 d10 k3, PS), 35%.
For the sequence GGTACATGGCAGTGGA (sugars k3 d10 k3, PS), the target mRNA inhibition was 87%.
In the case of GGTATACTTAAGCAAG (sugars k3 d10 k3, PS), the target mRNA inhibition worked out at 68%.
Same read-out and setting: the result for GGTGAGCACCGCGCCG (sugars k3 d10 k3, PS) reads -8%.
For the sequence GGTGTAACTTTTACCT (sugars k3 d10 k3, PS), the target mRNA inhibition was found to be 11%.
Same read-out and setting: as for GGTTAAATATTCTTCA (sugars k3 d10 k3, PS), the figure is 48%; as for GGTTACTAATTCCATA (sugars k3 d10 k3, PS), 56%; as for GTAAACACATCACTTG (sugars k3 d10 k3, PS), 51%.
On the same count and under the same terms, as for GTAAACTTGGCTGTGG (sugars k3 d10 k3, PS), the figure is 18%.
GTAAATATCCTGTAGT (sugars k3 d10 k3, PS): the target mRNA inhibition was 33%.
Still for that read-out and setting: as for GTAACTAACTCAAAAG (sugars k3 d10 k3, PS), the figure is -1%.
On the same count and under the same terms, as for GTAATGTAGGGATACA (sugars k3 d10 k3, PS), the figure is 48%.
Still for that read-out and setting: the result for GTACACAAGACAAATC (sugars k3 d10 k3, PS) reads 21%.
Regarding GTACACCTCTTCACTA (sugars k3 d10 k3, PS), the target mRNA inhibition stood at 7%.
For the sequence GTACATCCTGAAGCCA (sugars k3 d10 k3, PS), the target mRNA inhibition was 26%.
For GTAGATCCTGCTCTGG (sugars k3 d10 k3, PS), the target mRNA inhibition worked out at 45%.
For the sequence GTAGTCCTGCTTGCCC (sugars k3 d10 k3, PS), the target mRNA inhibition came to 44%.
On to GTAGTCCTGCTTGCCC (sugars k4 d8 k4, PS), for which the target mRNA inhibition amounted to 11%.
Consider GTATACCAACGACAGC (sugars k3 d10 k3, PS), for which the target mRNA inhibition was 78%.
For the sequence GTATACTTAAGCAAGT (sugars k3 d10 k3, PS), the target mRNA inhibition was found to be 42%.
On the same count and under the same terms, the result for GTATAGTTCTCAACCA (sugars k3 d10 k3, PS) reads 47%.
As for GTATTTCATAGCTAGT (sugars k3 d10 k3, PS), the target mRNA inhibition is 69%.
Take GTCAAAAAGATGCAGA (sugars k3 d10 k3, PS): the target mRNA inhibition turned out to be 50%.
